Reference: ChEMBL document CHEMBL3885861, “Open TG-GATES”

Organism: Rattus norvegicus
Assay: Open TG-GATES - Regimen: Single
Format: toxicity, organism-based, Sprague-Dawley
Set-up: regimen Single, gender Male, age 6 weeks
Details: in vivo, iv, route intravenous injection; for APTT / Bas / Eos / Fbg / Hb / Ht / Lym / MCH / MCHC / MCV / Mono / Neu / PT / Plat / RBC / Ret / WBC: tissue Blood; for KIDNEY_L / KIDNEY_R / KIDNEY_TOTAL: tissue Kidney; for LIVER: tissue Liver; for A/G / ALP / ALT / AST / BUN / CRE / Ca / Cl / DBIL / GLC / IP / K / LDH / Na / PL / RALB / TBIL / TC / TG / TP / gamma-GTP: tissue Plasma
[1] = 40 mg/kg, 3 h, dose level Middle
[2] = 40 mg/kg, 6 h, dose level Middle
[3] = 40 mg/kg, 9 h, dose level Middle
[4] = 40 mg/kg, 24 h, dose level Middle
[5] = 120 mg/kg, 3 h, dose level High
[6] = 120 mg/kg, 6 h, dose level High
[7] = 120 mg/kg, 9 h, dose level High
[8] = 120 mg/kg, 24 h, dose level High

CN(C)c1ncnc2c1ncn2[C@@H]1O[C@H](CO)[C@@H](N)[C@H]1O [PUROMYCIN AMINONUCLEOSIDE]
TERMINAL_BW [1]: 219 g
APTT [1]: 21.1 s
Bas [1]: 0%
Eos [1]: 0.4%
Fbg [1]: 283.6 mg/dL
Hb [1]: 12.7 g/dL
Ht [1]: 38%
Lym [1]: 55.6%
MCH [1]: 21.2 pg
MCHC [1]: 33.6%
MCV [1]: 63.3 fL
Mono [1]: 4.2%
Neu [1]: 38%
PT [1]: 16.2 s
Plat [1]: 115.8 x10_4/uL
RBC [1]: 600.8 x10_4/ul
Ret [1]: 6.9%
WBC [1]: 148.2 x10_2/uL
KIDNEY_L [1]: 0.9 g
KIDNEY_R [1]: 1 g
KIDNEY_TOTAL [1]: 1.9 g
LIVER [1]: 9.9 g
A/G [1]: 1.2
ALP [1]: 1624.6 IU/L
ALT [1]: 39.2 IU/L
AST [1]: 74 IU/L
BUN [1]: 14.2 mg/dL
CRE [1]: 0.2 mg/dL
Ca [1]: 11.2 mg/dL
Cl [1]: 105 meq/L
DBIL [1]: 0.002 mg/dL
GLC [1]: 177 mg/dL
IP [1]: 8 mg/dL
K [1]: 4.3 meq/L
LDH [1]: 163.4 IU/L
Na [1]: 140.6 meq/L
PL [1]: 149 mg/dL
RALB [1]: 2.9 g/dL
TBIL [1]: 0.014 mg/dL
TC [1]: 76.2 mg/dL
TG [1]: 127.8 mg/dL
TP [1]: 5.3 g/dL
gamma-GTP [1]: 1 IU/L
TERMINAL_BW [2]: 216.4 g
APTT [2]: 22.5 s
Bas [2]: 0%
Eos [2]: 0.6%
Fbg [2]: 317.6 mg/dL
Hb [2]: 13 g/dL
Ht [2]: 39%
Lym [2]: 57.2%
MCH [2]: 21 pg
MCHC [2]: 33.5%
MCV [2]: 62.8 fL
Mono [2]: 3.4%
Neu [2]: 37.8%
PT [2]: 15.6 s
Plat [2]: 134.5 x10_4/uL
RBC [2]: 620.8 x10_4/ul
Ret [2]: 6.9%
WBC [2]: 125.7 x10_2/uL
KIDNEY_L [2]: 1 g
KIDNEY_R [2]: 1 g
KIDNEY_TOTAL [2]: 1.9 g
LIVER [2]: 9.6 g
A/G [2]: 1.3
ALP [2]: 1345.2 IU/L
ALT [2]: 38.2 IU/L
AST [2]: 68.6 IU/L
BUN [2]: 12.8 mg/dL
CRE [2]: 0.1 mg/dL
Ca [2]: 11.2 mg/dL
Cl [2]: 104.2 meq/L
DBIL [2]: 0 mg/dL
GLC [2]: 175.2 mg/dL
IP [2]: 9.6 mg/dL
K [2]: 4.3 meq/L
LDH [2]: 166.6 IU/L
Na [2]: 139.2 meq/L
PL [2]: 149.2 mg/dL
RALB [2]: 3 g/dL
TBIL [2]: 0.024 mg/dL
TC [2]: 78.4 mg/dL
TG [2]: 81.6 mg/dL
TP [2]: 5.4 g/dL
gamma-GTP [2]: 1.2 IU/L
TERMINAL_BW [3]: 210.8 g
APTT [3]: 21.5 s
Bas [3]: 0%
Eos [3]: 1%
Fbg [3]: 315.4 mg/dL
Hb [3]: 13 g/dL
Ht [3]: 38.9%
Lym [3]: 62%
MCH [3]: 20.6 pg
MCHC [3]: 33.4%
MCV [3]: 61.7 fL
Mono [3]: 2.2%
Neu [3]: 34.6%
PT [3]: 15.9 s
Plat [3]: 132.8 x10_4/uL
RBC [3]: 631.6 x10_4/ul
Ret [3]: 7.2%
WBC [3]: 96.5 x10_2/uL
KIDNEY_L [3]: 0.9 g
KIDNEY_R [3]: 0.9 g
KIDNEY_TOTAL [3]: 1.9 g
LIVER [3]: 8.7 g
A/G [3]: 1.3
ALP [3]: 1104.4 IU/L
ALT [3]: 35.8 IU/L
AST [3]: 67 IU/L
BUN [3]: 12.6 mg/dL
CRE [3]: 0.1 mg/dL
Ca [3]: 11.1 mg/dL
Cl [3]: 104.2 meq/L
DBIL [3]: 0.002 mg/dL
GLC [3]: 176.6 mg/dL
IP [3]: 10.3 mg/dL
K [3]: 4.6 meq/L
LDH [3]: 146 IU/L
Na [3]: 139.6 meq/L
PL [3]: 145.4 mg/dL
RALB [3]: 3.1 g/dL
TBIL [3]: 0.024 mg/dL
TC [3]: 76.4 mg/dL
TG [3]: 103.8 mg/dL
TP [3]: 5.5 g/dL
gamma-GTP [3]: 1.6 IU/L
TERMINAL_BW [4]: 217.2 g
APTT [4]: 20.8 s
Bas [4]: 0%
Eos [4]: 0.8%
Fbg [4]: 315.4 mg/dL
Hb [4]: 13 g/dL
Ht [4]: 37.9%
Lym [4]: 85%
MCH [4]: 21.3 pg
MCHC [4]: 34.3%
MCV [4]: 62 fL
Mono [4]: 3%
Neu [4]: 10.2%
PT [4]: 15.9 s
Plat [4]: 116 x10_4/uL
RBC [4]: 613.4 x10_4/ul
Ret [4]: 6%
WBC [4]: 71.4 x10_2/uL
KIDNEY_L [4]: 1 g
KIDNEY_R [4]: 1 g
KIDNEY_TOTAL [4]: 2 g
LIVER [4]: 9.9 g
A/G [4]: 1.3
ALP [4]: 1315 IU/L
ALT [4]: 46 IU/L
AST [4]: 73 IU/L
BUN [4]: 19.6 mg/dL
CRE [4]: 0.2 mg/dL
Ca [4]: 11.4 mg/dL
Cl [4]: 103.2 meq/L
DBIL [4]: 0.002 mg/dL
GLC [4]: 179.2 mg/dL
IP [4]: 10 mg/dL
K [4]: 4.5 meq/L
LDH [4]: 186.2 IU/L
Na [4]: 140.6 meq/L
PL [4]: 142 mg/dL
RALB [4]: 3.1 g/dL
TBIL [4]: 0.016 mg/dL
TC [4]: 75 mg/dL
TG [4]: 89.4 mg/dL
TP [4]: 5.6 g/dL
gamma-GTP [4]: 1.6 IU/L
TERMINAL_BW [5]: 210.5 g
APTT [5]: 22.4 s
Bas [5]: 0%
Eos [5]: 0.8%
Fbg [5]: 278.6 mg/dL
Hb [5]: 12.8 g/dL
Ht [5]: 37.9%
Lym [5]: 44.4%
MCH [5]: 21.1 pg
MCHC [5]: 33.8%
MCV [5]: 62.5 fL
Mono [5]: 3%
Neu [5]: 51.2%
PT [5]: 16.3 s
Plat [5]: 116 x10_4/uL
RBC [5]: 607 x10_4/ul
Ret [5]: 6.7%
WBC [5]: 133.5 x10_2/uL
KIDNEY_L [5]: 1 g
KIDNEY_R [5]: 0.9 g
KIDNEY_TOTAL [5]: 1.9 g
LIVER [5]: 9 g
A/G [5]: 1.3
ALP [5]: 1280.6 IU/L
ALT [5]: 43.4 IU/L
AST [5]: 82.8 IU/L
BUN [5]: 13.8 mg/dL
CRE [5]: 0.2 mg/dL
Ca [5]: 11 mg/dL
Cl [5]: 104.8 meq/L
DBIL [5]: 0.002 mg/dL
GLC [5]: 163.2 mg/dL
IP [5]: 9.3 mg/dL
K [5]: 4.1 meq/L
LDH [5]: 162.8 IU/L
Na [5]: 141.4 meq/L
PL [5]: 140.4 mg/dL
RALB [5]: 3 g/dL
TBIL [5]: 0.032 mg/dL
TC [5]: 69 mg/dL
TG [5]: 88.2 mg/dL
TP [5]: 5.3 g/dL
gamma-GTP [5]: 1.4 IU/L
TERMINAL_BW [6]: 213.9 g
APTT [6]: 22.1 s
Bas [6]: 0%
Eos [6]: 0.6%
Fbg [6]: 304.8 mg/dL
Hb [6]: 12.6 g/dL
Ht [6]: 37.5%
Lym [6]: 43.2%
MCH [6]: 20.7 pg
MCHC [6]: 33.6%
MCV [6]: 61.6 fL
Mono [6]: 3.6%
Neu [6]: 51.2%
PT [6]: 15.8 s
Plat [6]: 121.6 x10_4/uL
RBC [6]: 608.8 x10_4/ul
Ret [6]: 6.9%
WBC [6]: 133.1 x10_2/uL
KIDNEY_L [6]: 0.9 g
KIDNEY_R [6]: 1 g
KIDNEY_TOTAL [6]: 1.9 g
LIVER [6]: 9.3 g
A/G [6]: 1.3
ALP [6]: 1220.8 IU/L
ALT [6]: 40.8 IU/L
AST [6]: 75 IU/L
BUN [6]: 11.6 mg/dL
CRE [6]: 0.1 mg/dL
Ca [6]: 11.3 mg/dL
Cl [6]: 103.6 meq/L
DBIL [6]: 0.004 mg/dL
GLC [6]: 165.2 mg/dL
IP [6]: 10.4 mg/dL
K [6]: 4.3 meq/L
LDH [6]: 135.8 IU/L
Na [6]: 140 meq/L
PL [6]: 151 mg/dL
RALB [6]: 3 g/dL
TBIL [6]: 0.042 mg/dL
TC [6]: 79.8 mg/dL
TG [6]: 60.4 mg/dL
TP [6]: 5.4 g/dL
gamma-GTP [6]: 1.6 IU/L
TERMINAL_BW [7]: 213.9 g
APTT [7]: 22.8 s
Bas [7]: 0%
Eos [7]: 1%
Fbg [7]: 298.6 mg/dL
Hb [7]: 12.8 g/dL
Ht [7]: 38.3%
Lym [7]: 56%
MCH [7]: 20.9 pg
MCHC [7]: 33.5%
MCV [7]: 62.5 fL
Mono [7]: 2.8%
Neu [7]: 39.6%
PT [7]: 15.4 s
Plat [7]: 116 x10_4/uL
RBC [7]: 614 x10_4/ul
Ret [7]: 6.9%
WBC [7]: 117.1 x10_2/uL
KIDNEY_L [7]: 1 g
KIDNEY_R [7]: 1 g
KIDNEY_TOTAL [7]: 2 g
LIVER [7]: 8.2 g
A/G [7]: 1.2
ALP [7]: 1175.4 IU/L
ALT [7]: 42 IU/L
AST [7]: 79.6 IU/L
BUN [7]: 11.8 mg/dL
CRE [7]: 0.1 mg/dL
Ca [7]: 10.8 mg/dL
Cl [7]: 103.4 meq/L
DBIL [7]: 0 mg/dL
GLC [7]: 176.4 mg/dL
IP [7]: 10.3 mg/dL
K [7]: 4.2 meq/L
LDH [7]: 129.2 IU/L
Na [7]: 139.6 meq/L
PL [7]: 136.6 mg/dL
RALB [7]: 3 g/dL
TBIL [7]: 0.03 mg/dL
TC [7]: 75.4 mg/dL
TG [7]: 56.6 mg/dL
TP [7]: 5.4 g/dL
gamma-GTP [7]: 1.6 IU/L
TERMINAL_BW [8]: 212.8 g
APTT [8]: 20.5 s
Bas [8]: 0%
Eos [8]: 0.6%
Fbg [8]: 343 mg/dL
Hb [8]: 12.9 g/dL
Ht [8]: 37.4%
Lym [8]: 85%
MCH [8]: 20.5 pg
MCHC [8]: 34.6%
MCV [8]: 59.4 fL
Mono [8]: 3.8%
Neu [8]: 9.6%
PT [8]: 15.7 s
Plat [8]: 121.3 x10_4/uL
RBC [8]: 629 x10_4/ul
Ret [8]: 4.1%
WBC [8]: 73.2 x10_2/uL
KIDNEY_L [8]: 0.9 g
KIDNEY_R [8]: 0.9 g
KIDNEY_TOTAL [8]: 1.8 g
LIVER [8]: 9.4 g
A/G [8]: 1.3
ALP [8]: 1135 IU/L
ALT [8]: 39.8 IU/L
AST [8]: 70 IU/L
BUN [8]: 27.2 mg/dL
CRE [8]: 0.2 mg/dL
Ca [8]: 11.4 mg/dL
Cl [8]: 103.4 meq/L
DBIL [8]: 0 mg/dL
GLC [8]: 171.8 mg/dL
IP [8]: 10.5 mg/dL
K [8]: 4.8 meq/L
LDH [8]: 142.8 IU/L
Na [8]: 141 meq/L
PL [8]: 142.4 mg/dL
RALB [8]: 3.2 g/dL
TBIL [8]: 0.028 mg/dL
TC [8]: 79.4 mg/dL
TG [8]: 59.2 mg/dL
TP [8]: 5.8 g/dL
gamma-GTP [8]: 1.4 IU/L
